Measurements taken from US11371022B2, “Blood-brain barrier endothelial cells derived from pluripotent stem cells for blood-brain barrier models” (PRESIDENT AND FELLOWS OF HARVARD COLLEGE, priority 2016, dated 2022).

Key:
efflux pump = assay: DiOC2 permeability test of efflux pump function in BBB chip; format: in vitro ADME, human; details: hypoxia stimulation vs normoxia BBB chip; FIG. 9B
Source text: FIGS. 9A-9C are bar graphs showing the inhibition of the efflux transporter in control and hypoxic stimulated BBB chips by verapamil, MK-571 or KO143. […] All inhibitor-treated samples were independently normalized to the corresponding mock control.
A non-limiting example of assembling a BBB model in a microfluidic chip having flow, using the hypoxia differentiated PSCs-to-BMVECs is as follows. To assemble the BBB model on microfluidic chips, polydimethylsiloxane (PDMS) microfluidic chip was plasma treated (0.5 mbar, 50 W, 2 min) and coated with 0.01% poly-L-lysine solution for 1 hour. Subsequently, 400 ug/ml collagen IV and 100 μg/ml fibronectin were treated to microfluidic chips and incubated overnight in normal cell culture condition (37 C, 5% CO2, 20% O2). A day after coating, ECM solution was rinsed with EC+RA medium. The harvested astrocytes and pericytes were resuspended at 0.7 and 0.3 million cells/mL in EC+RA medium. Mixture of cells was seeded on apical micro-channel, and placed in incubator for 1 hour allowing the cells to adhere to membrane. The differentiated BMVECs on 6-cm plastic culture dish were dissociated using Accutase, harvested, and resuspended 25 million cells/mL in degassed EC+RA media. The differentiated BMVECs were seeded on basal micro-channel, and flip the entire PDMS chip upside down in petri dish to allow the BMVEC to attach to the membrane. […]

ABCB1 = target: T1, ABCB1 (Homo sapiens, UniProt P08183); assay: Doxorubicin permeability across BBB chip with or without verapamil (efflux pump inhibition); format: in vitro ADME; details: FIG. 9C
T1 construct: The BBB model chip comprises iPSC-derived, hypoxia-stimulated or -differentiated BMVECs; endogenous in cells; host or cells: human iPSC (IMR90-4)-derived brain microvascular endothelial cells, co-cultured with astrocytes and pericytes on a microfluidic chip
T1 sequence (P08183 whole entry): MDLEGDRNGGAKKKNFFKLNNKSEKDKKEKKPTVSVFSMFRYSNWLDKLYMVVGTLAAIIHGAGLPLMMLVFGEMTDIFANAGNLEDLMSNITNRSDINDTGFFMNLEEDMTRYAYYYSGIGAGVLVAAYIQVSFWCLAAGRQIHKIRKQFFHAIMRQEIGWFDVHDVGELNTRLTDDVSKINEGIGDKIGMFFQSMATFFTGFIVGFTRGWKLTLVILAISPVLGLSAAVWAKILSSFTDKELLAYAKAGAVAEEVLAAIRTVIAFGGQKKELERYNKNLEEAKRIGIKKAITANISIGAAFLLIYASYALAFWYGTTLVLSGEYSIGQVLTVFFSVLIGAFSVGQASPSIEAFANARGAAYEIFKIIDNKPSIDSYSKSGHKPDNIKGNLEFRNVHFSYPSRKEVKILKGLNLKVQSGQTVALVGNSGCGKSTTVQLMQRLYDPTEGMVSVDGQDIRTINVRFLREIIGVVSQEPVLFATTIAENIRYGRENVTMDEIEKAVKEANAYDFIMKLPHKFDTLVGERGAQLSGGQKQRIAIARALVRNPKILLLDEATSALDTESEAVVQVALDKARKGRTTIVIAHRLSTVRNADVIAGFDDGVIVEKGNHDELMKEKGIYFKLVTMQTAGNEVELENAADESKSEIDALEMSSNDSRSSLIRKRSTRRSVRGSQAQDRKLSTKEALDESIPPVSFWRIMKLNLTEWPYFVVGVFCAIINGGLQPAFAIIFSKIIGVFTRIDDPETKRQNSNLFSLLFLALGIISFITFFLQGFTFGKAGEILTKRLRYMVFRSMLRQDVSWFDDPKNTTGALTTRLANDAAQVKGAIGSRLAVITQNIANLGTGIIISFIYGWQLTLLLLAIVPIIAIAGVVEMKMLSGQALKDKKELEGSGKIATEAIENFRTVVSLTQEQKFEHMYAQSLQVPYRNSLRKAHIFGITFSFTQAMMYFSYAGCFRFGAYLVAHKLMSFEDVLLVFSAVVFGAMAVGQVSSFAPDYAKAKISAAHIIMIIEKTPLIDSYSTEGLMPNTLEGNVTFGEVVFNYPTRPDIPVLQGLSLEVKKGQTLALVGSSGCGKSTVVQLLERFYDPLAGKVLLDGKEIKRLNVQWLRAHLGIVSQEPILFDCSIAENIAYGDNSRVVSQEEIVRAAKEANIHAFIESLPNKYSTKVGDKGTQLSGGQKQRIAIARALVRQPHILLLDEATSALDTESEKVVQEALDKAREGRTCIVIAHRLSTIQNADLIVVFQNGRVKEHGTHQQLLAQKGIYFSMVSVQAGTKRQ
Source text: Doxorubicin is known as a substrate of ABCB1.

ABCB (P-gp) [1] = target: T2, ABCB (P-gp) (Homo sapiens, UniProt P08183); details: iPS-derived BMVEC generated using published protocol, in vitro; cited from earlier work
T2 construct: host or cells: iPS-derived BMVEC (published protocol)
T2 sequence (P08183 whole entry): as above

ABCB (P-gp) [2] = target: T3, ABCB (P-gp) (Mus musculus, UniProt P21447); details: cited from earlier work
T3 construct: compared to in vivo efflux ratios (2.4-fold) (Cell, 1994, 77, 4)
T3 sequence (P21447 whole entry): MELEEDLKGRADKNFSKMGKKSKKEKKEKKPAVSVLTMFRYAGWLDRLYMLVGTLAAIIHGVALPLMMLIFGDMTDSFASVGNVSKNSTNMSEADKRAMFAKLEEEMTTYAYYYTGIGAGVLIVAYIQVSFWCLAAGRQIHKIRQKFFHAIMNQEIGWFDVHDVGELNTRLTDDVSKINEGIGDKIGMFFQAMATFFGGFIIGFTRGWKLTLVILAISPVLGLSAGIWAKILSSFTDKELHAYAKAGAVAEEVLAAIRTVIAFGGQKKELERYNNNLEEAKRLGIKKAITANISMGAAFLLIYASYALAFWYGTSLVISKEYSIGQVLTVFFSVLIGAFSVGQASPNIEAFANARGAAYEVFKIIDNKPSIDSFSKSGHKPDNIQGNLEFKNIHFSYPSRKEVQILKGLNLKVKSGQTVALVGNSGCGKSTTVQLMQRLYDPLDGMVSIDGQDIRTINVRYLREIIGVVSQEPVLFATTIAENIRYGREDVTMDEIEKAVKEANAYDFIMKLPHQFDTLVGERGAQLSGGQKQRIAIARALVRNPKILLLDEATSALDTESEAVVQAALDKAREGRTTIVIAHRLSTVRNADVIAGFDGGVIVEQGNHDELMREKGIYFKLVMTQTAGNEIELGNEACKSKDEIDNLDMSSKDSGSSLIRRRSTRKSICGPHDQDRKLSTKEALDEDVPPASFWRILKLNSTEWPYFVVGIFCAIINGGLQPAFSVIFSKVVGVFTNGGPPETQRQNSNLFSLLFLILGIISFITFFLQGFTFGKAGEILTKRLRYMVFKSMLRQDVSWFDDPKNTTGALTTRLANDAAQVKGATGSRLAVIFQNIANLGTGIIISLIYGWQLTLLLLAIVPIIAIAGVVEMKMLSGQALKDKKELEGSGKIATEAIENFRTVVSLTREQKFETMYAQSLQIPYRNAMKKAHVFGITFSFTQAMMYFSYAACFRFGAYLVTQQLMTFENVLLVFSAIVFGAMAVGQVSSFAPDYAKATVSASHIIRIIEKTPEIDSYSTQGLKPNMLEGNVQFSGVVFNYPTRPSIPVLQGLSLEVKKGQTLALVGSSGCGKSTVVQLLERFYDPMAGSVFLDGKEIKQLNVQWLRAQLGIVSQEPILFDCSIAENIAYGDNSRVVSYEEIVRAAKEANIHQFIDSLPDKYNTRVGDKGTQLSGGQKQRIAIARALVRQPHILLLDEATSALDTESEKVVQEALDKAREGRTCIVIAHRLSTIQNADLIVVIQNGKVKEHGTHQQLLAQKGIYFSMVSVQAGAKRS

Row | Structure (SMILES) | efflux pump function in DiO2 test (efflux pump) | doxorubicin permeability, increase by verapamil treatment (ABCB1; hypoxia BBB chip, verapamil (ABCB1 inhibitor) vs mock control) [fold] | change of doxorubicin BBB penetration by verapamil (ABCB1; normoxia control BBB chip) | efflux ratio (ABCB (P-gp) [1]) [fold] | in vivo efflux ratios (ABCB (P-gp) [2]) [fold]
1 | CCN1/C(=C/C=C/c2oc3ccccc3[n+]2CC)Oc2ccccc21.[I-] [DiO2] | enhanced efflux pump function | – | – | – | –
2 | COc1cccc2c1C(=O)c1c(O)c3c(c(O)c1C2=O)C[C@@](O)(C(=O)CO)C[C@@H]3O[C@H]1C[C@H](N)[C@H](O)[C@H](C)O1 [Doxorubicin, doxorubicin] | – | 2.7 | did not show significant change | 1.3 | 2.4
